# Measured values: patent US6239087A, “Detergent compositions containing fragrance precursors and the fragrance precursors themselves” (The Procter & Gamble Company, priority 1998, dated 2001)
# Test: Pro-Fragrant Hydrolysis Test (hydrolysis half-life t-1/2 by UV/Vis)
# Format: physicochemical
# Details: pH 0; 90/10 dioxane/water, 30° C.
# Method: Hydrolysis half-life is the measurement used to determine the ease with which the pro-fragrance compound undergoes acid hydrolysis and thereby releases its fragrance component(s) upon exposure to acid conditions. […] Preferably, pro-fragrances of the invention have a half-life at pH 2 of less than 60 minutes. For granular detergents, the more reactive pro-fragrances, that is, those with half-life at pH 2 of less than one minute, are most suitable, although those having a half-life of less than 60 minutes at pH 0 are also useful. For liquid detergent applications, pro-fragrances having a half-life of less than 60 minutes at pH 0, and half-life greater than one minute at pH 2 should preferably be used.
# Hydrolysis half-life is determined by UV/V is spectroscopy in a 90/10 dioxane/water system at 30° C. by following the appearance of the carbonyl absorbance. Because of the hydrophobicity of the pro-fragrance compounds of the invention, a high dioxane/water ratio is needed to ensure solubility of the pro-fragrance. The pH of the water used is achieved by using aqueous HCl. The concentration of the pro-fragrance in the dioxane/water system can be adjusted to achieve convenient, measurable absorbance changes.
# All measurements are carried out using a Hewlett Packard 8452 A Diode Array Spectrophotometer using quartz 1 cm path length cuvette cells. […] The pH's are measured using an Orion 230 A standardized with pH 4 and pH 7 buffers. […]
# Pro-fragrance is weighed out in a 10.00 ml volumetric flask using an analytical balance (Mettler AE 200) Precision is 1/10 mg. […] Hydrolysis time is measured, starting upon addition of the acid. […] The absorbance of the pro-fragrance solution (At) is followed at a regular series of time intervals, and the cuvette is kept in the water-bath at the above-indicated temperature between measurements. Initial absorbance (Ao) measurements are carried out using an equal concentration of pro-fragrance in a 90/10 v/v dioxane-deionized water solution, and final absorbance (Af) measurements are taken using the hydrolyzed pro-fragrance solution after the hydrolysis is complete. The wavelength at which the hydrolysis is followed is chosen at the wavelength of the absorbance maximum of the parent aldehyde or ketone.
# Reaction half-lifes are determined using conventional procedures. The observed first-order rate constant (kobs) is determined by slope of the line provided by plotting the following finction vs time (min):
# wherein said function is the natural log of the ratio between the absorbance difference at initial time (Ao) and final time (Af) over the absorbance difference at time t (At) and final time (Af). […]
row,SMILES,t1/2 (hydrolysis half-life)
1,"CCCCCCCCCCOC(OCCCCCCCCCC)c1ccc(OC)cc1 [Example 1, Didecyl Anisaldehyde Acetal]",less than 1 minutes
2,"CC(C)=CCCC(C)=CC(OC/C=C(\C)CCC=C(C)C)OC/C=C(\C)CCC=C(C)C [Example 2, Digeranyl Citral Acetal]",less than one
3,"CCCCCCCCCCOC(C)(CCc1ccccc1)OCCCCCCCCCC [Example 3, Didecyl Benzyl Acetone Ketal]",less than one
4,"CCCCCCCCCC(OC/C=C(\C)CCC=C(C)C)OC/C=C(\C)CCC=C(C)C [Example 4, Digeranyl Decanal Acetal]",44 min
